Experimental data published in US9738612B2, “Methylacryloyl benzimidazolone derivative and anti-tumour use thereof” (SHANGHAI NATURE STANDARD R&D AND BIOTECH CO., LTD, priority 2014, dated 2017).
Entries after “also recorded” stand apart in the source; their conditions may differ.

Key:
Format in all cases: cell-based
[1] = tested on: Akt phosphorylation at S473 site; test: ELISA (double antibody sandwich), Akt phosphorylation in IGF-1 stimulated A549 cells; conditions: for Inhibitory rate % (Akt phosphorylation): drug 1 h, then IGF-1 10 min, p-Akt (S473) ELISA; for Effect on Akt phosphorylation compared with positive control: ELISA, in words
Description: Establishment of ELISA screening method using a double antibody sandwich method: A549 cells (a lung cancer cell line, purchased from Chinese Academy of Sciences, Shanghai Institutes for Biological Sciences Cell Resource Center) were inoculated at certain densities in 12-well plates, and incubated at 37° C. in a carbon dioxide incubator overnight to let cells attach the plate wells. Meanwhile the Akt antibody was inoculated at a specific concentration in a highly-adsorbed microplate, and placed in a refrigerator at 4° C. The 12-well plates were washed with sterile PBS three times, then into which serum-free F12 was added, and incubated for 24 hours in a incubator. Then MK2206, Triciribine and FD series drugs were added into 12-well plates and worked for one hour, followed by adding 100 ng of IGF-1 and being stimulated for 10 minutes. The 12-well plates were washed with pre-cooled PBS three times, and 100 μl of RIPA lysis buffer was added into each well to lyse cells on ice for 20 minutes. The lysates were collected and added to the appropriate microplate (purchased from Santa Cruz biotechnology), which were shaken on ice. A p-Akt (S473) antibody (purchased Cell Signaling Technology, Inc.) was added into microplates. After shaking for a period of time, an anti-rabbit antibody (purchased from Cell Signaling Technology, Inc.) was added. The reaction was terminated with 2M sulfuric acid after TMB developed. Absorbance at 450 nm was measured on a microplate reader, and the inhibitory rate=[…], among which ODsample refers to the absorbance of the sample well, ODIGF refers the absorbance of the well with IGF only, OD—IGF refers the absorbance of the well withoutIGF.

A549 = test: Sulforhodamine B proliferation; conditions: SRB; for inhibition at 10 µM: Homo sapiens, A549, 72 h, read-out: Inhibitory rate % (A549); for Inhibitory rate % (A549): 10 μM, 72 h
Description: (§1) At a certain density cells were seeded in 96-well plates, and adhered overnight. The medium was discarded after incubating cells with compounds to be tested for 72 h, then 100μL/well trichloroacetic acid (TCA) was added to fix cells at 4° C. for 2h. After that the fixing solution was discarded. Cells were gently washed 5 times with distilled water, dried at room temperature. Cells were stained with 4 mg/mL SRB staining solution (100 μL/well) at room temperature for 15min. The staining solution was discarded, and cells were washed five times with 1% acetic acid (HAC) and dried at room temperature. To the plate tris base buffer (10 mM) was added at 150 μL/well and placed at room temperature for 15min. The OD values were measured at 540 nm wavelength in a microplate reader. Inhibitory rate (%)=(OD valuecontrol wells−OD valuedrugs treated wells)/OD valuecontrol wells×100%.
(§2) The results were shown in Table 2, the working concentrations of MK2206 and compounds of FD series were 10 μM. As shown in this Table, PC-3 is a prostate cancer cell line purchased from Cell Resource Center of Shanghai Institutes for Biological Sciences, Chinese Academy of Sciences, A549 is a lung cancer cell line purchased from Cell Resource Center of Shanghai Institutes for Biological Sciences, Chinese Academy of Sciences, and SGC-7901 is a gastric cancer cell line purchased from Cell Resource Center of Shanghai Institutes for Biological Sciences, Chinese Academy of Sciences.

PC-3 = test: Sulforhodamine B proliferation; conditions: SRB; for inhibition at 10 µM: Homo sapiens, PC-3, 72 h, read-out: Inhibitory rate % (PC-3); for inhibition at 10 µM / Inhibitory rate % (PC-3): 72 h
Description: as §1, §2

SGC-7901 = test: Sulforhodamine B proliferation; conditions: SRB; for inhibition at 10 µM: Homo sapiens, SGC-7901, 72 h, read-out: Inhibitory rate % (SGC-7901); for Inhibitory rate % (SGC-7901): 10 μM, 72 h
Description: as §1, §2

p-Akt (S473) = test: Western blot, p-Akt (S473) in IGF stimulated A549 cells; conditions: compound 1 h, IGF 10 min, FIG. 1, in words
Description: A549 cells were seeded at a density of 2×10^5 cells/well into 12-well plates, and adhered overnight. Then the medium was discarded and the plates were washed three times with normal saline. After that, fresh serum-free medium was added to starve cells for 24 hours, compounds to be tested were added to work for 1 h, then IGF-I was added to stimulated for 10 min, followed byadding a lysis buffer on ice to lyse for half an hour. The cell lysates were collected and centrifuged at 20000×g at 4° C. for 10min, then the supernatant was collected. Protein was quantified by MicroBCA protein quantification Assay kit, and the protein concentration was normalized. The supernatant was mixed with the 4×SDS sample buffer [200 mM Tris.Cl (pH 6.8), 400 mM DTT, 8% SDS, 0.4% bromophenol blue, 40% glycerol] and boiled for 15 min. After cooling at room temperature, aliquots were loaded on polyacrylamide gel, and electrophoresed in Tris-glycine electrophoretic buffer (25 mM Tris, 250 mM glycine, 0.1% SDS) at 80-120 V for about 2 h. Proteins were transferred from the gel to a nitrocellulose membrane by a semi-dry method. Transferring conditions: transfer buffer (39 mM glycine, 48 mM Tris base, 0.037% SDS, 20% methanol); transfer current 25 mA; transfer time 2 h. After transfer, Ponceau S staining was used to determine the transfer efficiency and the positions of protein bands on the nitrocellulose membranes. After labeling the membrane was blocked with a blocking solution containing 5% nonfat-dried milk [5% nonfat-dried milk, 20 mM Tris-HCl (pH 7.2-7.4), 150 mM NaCl, 0.1% (v/v) Tween 20] on a shaker at room temperature for 2 h. To the system were added specific primary antibodies and incubated overnight at 4° C. Then the membrane was washed with PBST solution [20 mM Tris-HCl (pH 7.2-7.4), 150 mM NaCl, 0.1% (v/v) Tween 20] at room temperature three times, 15 min/time. To the system were added Horseradish peroxidase-labeled secondary antibodies and incubated at room temperature on a shaker with gentle shaking for 2 h. After washing with PBST solution three times, the system was exposed, developed and fixed after SuperSignal West Dura Chemiluminescent Substrate (Pierce Inc, Rochford, IL) was used for color. The results were shown in FIG. 1, in which there were 12 lanes the band shade and size of which indicated the corresponding protein concentration levels. […] MK2206 was an Akt phosphorylation inhibitor developed by Merck, and was currently in phase II clinical trial, showing good therapeutic effects in a variety of tumors.

Structure (SMILES) | Inhibitory rate % (Akt phosphorylation) [1] | inhibition at 10 µM (A549) | inhibition at 10 µM (PC-3) | inhibition at 10 µM (SGC-7901) | Inhibitory rate % (A549) (A549) | Inhibitory rate % (PC-3) (PC-3; 10 μM) | Inhibitory rate % (SGC-7901) (SGC-7901) | Effect on Akt phosphorylation level (p-Akt S473 band) (p-Akt (S473)) | Effect on Akt phosphorylation compared with positive control [1] | Inhibiting effect on PC-3 tumor cells (PTEN deficient) proliferation relative to other lines (PC-3; 10 μM, in words)
C=C(C)C(=O)n1c(=O)n(C(=C)C)c2cc([N+](=O)[O-])ccc21 [FD7] | 6% | 34.1% | 22.6% | 34.1% |  |  |  |  |  | 
C=C(C)n1c(=O)n(C(=O)CCCCCCC)c2cc([N+](=O)[O-])ccc21 [FD16] | 64% | 23.2% | 7.1% | 12.4% |  |  |  |  |  | 
C=C(C)C(=O)n1c(=O)n(C(=C)C)c2ccc([N+](=O)[O-])cc21 [FD8] | 3% | 2.8% | 13.4% | 28% |  |  |  |  |  | 
C=C(C)n1c(=O)n(C(=O)c2ccccc2C)c2cc([N+](=O)[O-])ccc21 [FD18] | 42% | 11.5% | 32.1% | 44.2% |  |  |  |  |  | 
NC1(c2ccc(-c3nc4ccn5c(=O)[nH]nc5c4cc3-c3ccccc3)cc2)CCC1 [MK2206, reference compound] | 92% |  |  |  | 61.0% | 1.2% | 24.3% | significantly reduce the Akt phosphorylation level; also recorded: significantly inhibited the increase of Akt phosphorylation level stimulated by IGF |  | 
C=CC(=O)n1c(=O)n(C(=C)C)c2cc([N+](=O)[O-])ccc21 [FD5] | 20% | 22.3% | 29.1% | 7.3% |  |  |  |  |  | 
C=C(C)n1c(=O)n(C(=O)CCC)c2cc([N+](=O)[O-])ccc21 [FD10] | 17% | 5.3% | 13.8% | 28.1% |  |  |  |  |  | 
C=C(C)n1c(=O)n(C(=O)CC)c2cc([N+](=O)[O-])ccc21 [FD4] | 50% | 7.2% | 33.9% | 22% |  |  |  |  | comparable effects with that of Triciribine | 
C=C(C)n1c(=O)n(C(C)=O)c2ccc([N+](=O)[O-])cc21 [FD1] | 85% |  | 51.1% |  | 9.6% |  | 56.4% | significantly reduce the Akt phosphorylation level; also recorded: comparable effects to MK2206 |  | more significant
C=C(C)n1c(=O)n(C(=O)CCCCCCC)c2ccc([N+](=O)[O-])cc21 [FD15] | 42% | 33.3% | 4.6% | 20.1% |  |  |  |  |  | 
C=C(C)n1c(=O)n(C(=O)CCC)c2cc([N+](=O)[O-])ccc21 [FD12] | 48% |  |  |  | 3.8% | 8.2% | 19.8% |  | comparable effects with that of Triciribine | 
C=C(C)n1c(=O)n(C(=O)CCC)c2ccc([N+](=O)[O-])cc21 [FD11] | 11% |  |  |  | 2.4% | 19.2% | 13.6% |  |  | 
C=C(C)n1c(=O)n(C(=O)CCCCC)c2cc([N+](=O)[O-])ccc21 [FD14] | 34% | 13.1% | 9% | 25.5% |  |  |  |  |  | 
C=C(C)n1c(=O)n(C(=O)CCCCC)c2ccc([N+](=O)[O-])cc21 [FD13] | 56% |  |  |  |  |  |  |  | comparable effects with that of Triciribine | 
C=C(C)n1c(=O)n(C(C)=O)c2ccc([N+](=O)[O-])cc21 [FD2] | 51% |  |  |  | 3.4% | 32.4% | 23.4% |  | comparable effects with that of Triciribine | 
C=C(C)n1c(=O)n(C(=O)CCC)c2ccc([N+](=O)[O-])cc21 [FD9] | 22% |  | 26.1% | 26.4% | 1.1% |  |  |  |  | 
C=CC(=O)n1c(=O)n(C(=C)C)c2ccc([N+](=O)[O-])cc21 [FD6] | 10% | 18.2% | 24.2% | 30.4% |  |  |  |  |  | 
C=C(C)n1c(=O)n(C(=O)c2ccccc2C)c2ccc([N+](=O)[O-])cc21 [FD17] | 38% | 31.4% | 20% | 40.5% |  |  |  |  |  | 
